# Laboratory results: publication PMC7238120, “Strong and Selective Inhibitory Effects of the Biflavonoid Selamariscina A against CYP2C8 and CYP2C9 Enzyme Activities in Human Liver Microsomes” (Pharmaceutics, 2020)
# Where two headings read alike, the source gives them in different places.
# Target: T1, CYP1A2 (Homo sapiens, UniProt P05177)
# T1 construct: incubation mixtures containing pooled human liver microsomes (HLMs, XTreme 200, XenoTech); tissue XenoTech XTreme 200; host or cells: pooled human liver microsomes
# T1 sequence (P05177 1-516): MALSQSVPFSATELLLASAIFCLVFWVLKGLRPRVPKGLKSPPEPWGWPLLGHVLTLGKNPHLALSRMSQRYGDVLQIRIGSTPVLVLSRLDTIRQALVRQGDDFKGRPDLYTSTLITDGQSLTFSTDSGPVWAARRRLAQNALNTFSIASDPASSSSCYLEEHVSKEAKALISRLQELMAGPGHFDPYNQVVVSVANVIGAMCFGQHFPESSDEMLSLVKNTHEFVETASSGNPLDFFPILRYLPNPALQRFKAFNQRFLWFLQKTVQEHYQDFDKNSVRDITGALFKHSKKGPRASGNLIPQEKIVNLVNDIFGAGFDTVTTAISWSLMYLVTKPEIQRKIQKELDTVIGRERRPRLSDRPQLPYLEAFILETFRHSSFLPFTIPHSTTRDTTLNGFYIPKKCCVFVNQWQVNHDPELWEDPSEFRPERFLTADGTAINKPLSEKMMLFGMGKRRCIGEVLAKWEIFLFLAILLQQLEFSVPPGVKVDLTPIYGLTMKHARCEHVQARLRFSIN
# Test: Inhibition of CYP1A2-catalyzed phenacetin O-deethylation in pooled human liver microsomes
# Assay type: in vitro ADME
# Procedure: The inhibitory potential of the five biflavonoids on the metabolism of nine P450 probe substrates was evaluated using previously developed methods with minor modifications. Biflavonoids were dissolved in methanol. The final concentration of methanol in the incubation mixture was 1.0% (v/v). We used these P450 probe substrates: phenacetin for CYP1A2, coumarin for CYP2A6, bupropion for CYP2B6, amodiaquine for CYP2C8, diclofenac for CYP2C9, omeprazole for CYP2C19, dextromethorphan for CYP2D6, chlorzoxazone for CYP2E1 and midazolam for CYP3A (Table 1). […] The reaction was stopped by adding 50 μL of ice-cold acetonitrile containing 7 nM trimipramine (internal standard, IS). After centrifugation at 18,000 g (5 min, 4 °C), aliquots of supernatants were analyzed by LC-MS/MS (Shimadzu LCMS 8060 system, Shimadzu, Kyoto, Japan). All microsomal incubations were conducted in triplicate. We used HLMs to determine the mechanisms and constants (Ki values) for […] A inhibition of CYP1A2, CYP2B6, CYP2C8, CYP2C9 and CYP3A. […] The substrates were used at concentrations approximately near to their respective Km values. […] The other conditions were the same as in the cytochrome P450 inhibition study. […] Phenomenex, Torrance, CA, USA) and analyzed using a Shimadzu LCMS 8060 triple-quadrupole mass spectrometer coupled with a Nexera X2 ultra high-performance liquid chromatography system (Shimadzu, Kyoto, Japan) equipped with an electrospray ionization interface. The mobile phase consisted of 0.1% formic acid in water (A) and 0.1% formic acid in acetonitrile (B). […] The flow rate was 0.2 mL/min. Electrospray ionization was performed in positive-ion mode at 4000 V or in negative-ion mode at -3500 V. […] Quantitation was conducted in selected reaction monitoring (SRM) modes with the precursor-to-product ion transition for each metabolite (Table 1 and Table 2). We analyzed the data with Shimadzu LabSolution LC-MS software. The IC50 values were calculated by WinNonlin software (Pharsight, Mountain View, CA, USA). The type of inhibition and the apparent kinetic parameters for inhibitory activity (Ki) were determined by following several criteria: visual inspection of Dixon plots, Lineweaver-Burk double reciprocal plots, and secondary plots of Lineweaver-Burk plots versus biflavonoid concentrations, the size of the sum of squares of the residuals, Akaike Information Criteria values, the S.E. and 95% confidence interval of the parameter estimates from the nonlinear regression analysis using the WinNonlin software. The models tested included competitive, competitive partial, noncompetitive, noncompetitive partial, uncompetitive, uncompetitive partial, and mixed-type inhibition.
# [1] = substrate phenacetin 100 µM, pooled HLMs, read-out: IC50, P450 1A2
Compound,IC50 [1],other results
O=c1cc(-c2ccc(O)c(-c3c(O)cc4oc(-c5ccc(O)cc5)cc(=O)c4c3O)c2)oc2cc(O)cc(O)c12 [robustaflavone],4.5 µM,
O=C1CC(c2cc(-c3c(O)ccc4c(=O)cc(-c5ccc(O)cc5)oc34)c(O)cc2O)Oc2cc(O)cc(O)c21 (centres unmarked) [selamariscina A],7.4 µM,"Mode of Inhibition, CYP1A2 phenacetin (HLMs): Competitive; Ki (HLMs, average ± standard error, triplicate): 3.1 ± 0.6 µM"
"CC(C)(O)c1ccccc1CC[C@@H](SCC1(CC(=O)O)CC1)c1cccc(/C=C/c2ccc3ccc(Cl)cc3n2)c1 [montelukast, reference compound]",> 50 µM,
O=c1cc(-c2ccc(O)c(-c3c(O)cc(O)c4c(=O)cc(-c5ccc(O)cc5)oc34)c2)oc2cc(O)cc(O)c12 [amentoflavone],,IC50: 4.4 µM
O=c1cc(-c2ccc(O)c(-c3c(-c4ccc(O)cc4)oc4cc(O)cc(O)c4c3=O)c2)oc2cc(O)cc(O)c12 [taiwaniaflavone],6.8 µM,
O=c1cc(-c2ccc(O)cc2)oc2c(-c3c(O)cc(O)c4c(=O)cc(-c5ccc(O)cc5)oc34)c(O)cc(O)c12 [cupressuflavone],5.9 µM,
